Results: article PMC3266923, “Augmenter of Liver Regeneration (alr) Promotes Liver Outgrowth during Zebrafish Hepatogenesis” (PLoS ONE, 2012)

How the values were obtained:
zebrafish Alr [1] = biological target: T1, zebrafish Alr (Danio rerio, UniProt A4QNU9); test: Ellman's reagent (free thiol) time course; type: biochemical; conditions: room temperature
T1 construct: gene gfer; full-length ORF (191 residues) in pET28b, N-terminal His-tag, expressed in E. coli BL21-DE3, Ni-NTA purified under native condition; about 23 kDa monomer, disulfide-linked dimer

zebrafish Alr [2] = biological target: T1, zebrafish Alr; test: UV-visible absorption spectrum of purified protein; type: binding; conditions: 15 uM protein, free FAD as reference; FAD co-purified from E. coli
zebrafish Alr [3] = biological target: T2, zebrafish Alr (Danio rerio, UniProt A4QNU9, C131S); test: UV-visible absorption spectrum of purified protein; type: binding; conditions: 15 uM protein, free FAD as reference; FAD co-purified from E. coli
T2 construct: gene gfer; full-length ORF (191 residues) in pET28b, N-terminal His-tag, expressed in E. coli BL21-DE3, Ni-NTA purified under native condition; about 23 kDa monomer, disulfide-linked dimer
T2 sequence (A4QNU9 1-191 C131S): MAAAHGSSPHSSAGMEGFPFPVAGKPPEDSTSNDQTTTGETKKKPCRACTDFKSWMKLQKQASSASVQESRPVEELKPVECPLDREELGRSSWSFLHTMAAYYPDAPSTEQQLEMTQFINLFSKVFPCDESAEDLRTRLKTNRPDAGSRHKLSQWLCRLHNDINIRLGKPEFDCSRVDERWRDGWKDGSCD

T1 sequence (A4QNU9 1-191): as the sequence (A4QNU9 1-191 C131S) above, with S131C counted along it

Row | SMILES | Ellman's reagent (free thiol) time course (zebrafish Alr [1]) | UV-visible absorption spectrum of purified protein (zebrafish Alr [2]) | UV-visible absorption spectrum of purified protein (zebrafish Alr [3])
1 | OC(CS)C(O)CS (stereo not drawn) [DTT] | Zebrafish Alr oxidized DTT efficiently, while Alr^C131S completely lost this activity |  | 
2 | Cc1cc2nc3c(=O)[nH]c(=O)nc-3n(C[C@H](O)[C@H](O)[C@H](O)COP(=O)(O)OP(=O)(O)OC[C@H]3O[C@@H](n4cnc5c(N)ncnc54)[C@H](O)[C@@H]3O)c2cc1C [FAD] |  | Zebrafish Alr also binds FAD as determined by spectroscopic absorption | wild type Alr protein and mutant Alr^C131S protein are characteristic of the FAD moiety
